Laboratory results: ChEMBL document CHEMBL1201862, “PubChem BioAssay data set” (2004)
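These data come from cells grown in 96-well plates and exposed to compound for 48 hours at five concentrations. GI50 is the concentration that inhibits growth by half.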 Active and inactive are the calls of the source. Rule as the data show it: active = GI50 up to about 1.1 µM and inactive = higher.

How the values were obtained:
Test in all cases: inhibition of tumour cell growth, NCI panel, 48 h
A549 = system: A549
ACHN = system: ACHN
COLO 205 = system: COLO 205
HL-60 = system: HL-60
HOP-92 = system: HOP-92
K562 = system: K562
KM12 = system: KM12
LOX IMVI = system: LOX IMVI
Malme-3M = system: Malme-3M
NCI-H460 = system: NCI-H460
OVCAR-5 = system: OVCAR-5
SK-MEL-28 = system: SK-MEL-28
SK-MEL-2 = system: SK-MEL-2
SK-MEL-5 = system: SK-MEL-5
SK-OV-3 = system: SK-OV-3
UACC-257 = system: UACC-257
UACC-62 = system: UACC-62
UO-31 = system: UO-31
HCT-116 = system: HCT-116
MCF7 = system: MCF7

Measured: GI50

Cc1ccc(SSc2ccc(C)cc2C(=O)O)c(C(=O)O)c1
inactive: A549 > 100 µM | ACHN > 100 µM | COLO 205 > 100 µM | HL-60 > 100 µM | HOP-92 > 100 µM | K562 > 100 µM | KM12 > 100 µM | LOX IMVI > 100 µM | Malme-3M > 100 µM | NCI-H460 > 100 µM | OVCAR-5 > 100 µM | SK-MEL-28 > 100 µM | SK-MEL-2 > 100 µM | SK-MEL-5 > 100 µM | SK-OV-3 > 100 µM | UACC-257 > 100 µM | UACC-62 > 100 µM | UO-31 > 100 µM

CCCCCc1cc(OC(=O)c2c(O)cc(OC)cc2CCCCC)cc(O)c1C(=O)O
inactive: A549 17.8 µM | ACHN 17.3 µM | COLO 205 18.2 µM | HL-60 24.9 µM | HOP-92 16.4 µM | K562 26.8 µM | KM12 17.3 µM | LOX IMVI 17.7 µM | Malme-3M 13 µM | NCI-H460 15.9 µM | OVCAR-5 19.1 µM | SK-MEL-28 17.1 µM | SK-MEL-2 16.8 µM | SK-MEL-5 14.8 µM | SK-OV-3 16.7 µM | UACC-62 14.5 µM | UO-31 13.6 µM

CCc1cccc(C)c1NC(=O)CCc1nnc2s/c(=C\c3cccc4ccccc34)c(=O)n12
inactive: A549 > 100 µM | ACHN > 100 µM | COLO 205 > 100 µM | HCT-116 57.1 µM | HL-60 44.6 µM | HOP-92 > 100 µM | K562 30.3 µM | KM12 92.7 µM | LOX IMVI 80.7 µM | Malme-3M > 100 µM | NCI-H460 > 100 µM | OVCAR-5 > 100 µM | SK-MEL-28 > 100 µM | SK-MEL-2 > 100 µM | SK-MEL-5 > 100 µM | SK-OV-3 > 100 µM | UACC-257 > 100 µM | UACC-62 > 100 µM | UO-31 > 100 µM

C/C(=N\N(C)C)C(CN(C)C)C(c1ccccc1)c1c(O)c2ccccc2oc1=O (stereo not given)
inactive: A549 > 100 µM | ACHN > 100 µM | COLO 205 > 100 µM | HCT-116 > 100 µM | HL-60 > 100 µM | HOP-92 70.5 µM | K562 > 100 µM | KM12 > 100 µM | LOX IMVI > 100 µM | Malme-3M > 100 µM | NCI-H460 > 100 µM | OVCAR-5 > 100 µM | SK-MEL-28 > 100 µM | SK-MEL-2 > 100 µM | SK-MEL-5 > 100 µM | SK-OV-3 > 100 µM | UACC-257 > 100 µM | UACC-62 > 100 µM

COc1ccccc1N/C(SCc1ccccc1)=C(/C(Cl)=C(Cl)Cl)[N+](=O)[O-]
inactive: A549 30.4 µM | ACHN 32.1 µM | COLO 205 19.5 µM | HCT-116 31.3 µM | K562 19.8 µM | KM12 34 µM | MCF7 25.9 µM | Malme-3M 17.4 µM | NCI-H460 58.2 µM | OVCAR-5 33.3 µM | SK-MEL-28 15.1 µM | SK-MEL-2 29.6 µM | SK-OV-3 46.5 µM | UACC-257 85.3 µM | UACC-62 48 µM | UO-31 16.4 µM

C[Si](C)(C)C1(Sc2ccccc2)SCCCS1
inactive: A549 31.9 µM | ACHN 35.9 µM | COLO 205 41.5 µM | HCT-116 21.3 µM | HL-60 12 µM | HOP-92 32.8 µM | K562 31.1 µM | KM12 64.7 µM | LOX IMVI 31.6 µM | Malme-3M 70.6 µM | NCI-H460 52.8 µM | OVCAR-5 > 100 µM | SK-MEL-28 43.3 µM | SK-MEL-2 58.9 µM | SK-MEL-5 72.9 µM | SK-OV-3 > 100 µM | UACC-257 38.7 µM | UACC-62 35 µM | UO-31 6.27 µM

COc1cc2c(c3c1C=CCO3)C(=O)c1ccccc1C2=O
inactive: A549 38.5 µM | ACHN 34.2 µM | COLO 205 19.6 µM | HCT-116 33.3 µM | HL-60 19.3 µM | HOP-92 > 100 µM | K562 32.3 µM | KM12 30.3 µM | LOX IMVI 28.6 µM | Malme-3M > 100 µM | NCI-H460 39.8 µM | OVCAR-5 > 100 µM | SK-MEL-28 > 100 µM | SK-MEL-2 > 100 µM | SK-MEL-5 24.7 µM | SK-OV-3 > 100 µM | UACC-257 25.3 µM | UACC-62 47.4 µM | UO-31 29.5 µM

COc1cc2c(oc(=O)c3cc4cc([Si](C)(C)C)oc4c(OC)c32)c2cccc(O)c12
inactive: A549 > 100 µM | ACHN > 100 µM | COLO 205 > 100 µM | HCT-116 > 100 µM | HL-60 > 100 µM | HOP-92 > 100 µM | K562 > 100 µM | KM12 > 100 µM | LOX IMVI > 100 µM | Malme-3M > 100 µM | NCI-H460 > 100 µM | OVCAR-5 > 100 µM | SK-MEL-28 > 100 µM | SK-MEL-2 > 100 µM | SK-MEL-5 > 100 µM | SK-OV-3 > 100 µM | UACC-257 > 100 µM | UACC-62 > 100 µM | UO-31 > 100 µM
